Experiments:
[1] = Measurement of specific surface (nitrogen-absorption isotherm, BET method); type: physicochemical; conditions: Sodium Salt; for Specific surface: BET method, nitrogen absorption at 77 K after vacuum degassing at 50° C.; for Specific surface, relative comparison: relative to the freeze-dried product
Method: Measurement of Specific Surface:
As for each of amorphous substances of 2-[[4-(3-methoxypropoxy)-3-methylpyridine-2-yl]methylsulfinyl]-1H-benzimidazole sodium salt obtained by freeze-drying (Reference example 2), heat-drying (Example 3), respectively, the nitrogen-absorption isotherms were measured at liquid nitrogen temperature (77 K) by a high accuracy full automatic gas absorption equipment “BELSORP 36” (prepared by Japan Bell) after vacuum degassing at 50° C. These isotherms were analyzed by BET method to obtain the specific surface.

[2] = Measurement of particle size distribution by laser diffractometry (Microtrac X100); type: physicochemical; conditions: Sodium Salt; for particle size distribution: Microtrac X100, FIG. 4 and FIG. 5; for 90% cumulative diameter: calculated by measurement of the particle size distribution
Method: The measurement of particle size distribution by laser diffractometry can be conducted, for example, by using “Microtrac X100” (made by Leeds And Northrup). In the case where the particle size distribution of the amorphous substance of sulfoxide derivative (I) or the salt thereof, which is prepared by conducting the above-mentioned heat-drying, is measured by the laser diffractometry, the amorphous substance of sulfoxide derivative (I) or the salt thereof has 50 μm or less, preferably 30 μm or less of average particle diameter, and 80 μm or less, preferably 50 μm or less of 90% cumulative diameter.

[3] = scan speed 2° C./min, 20 to 120° C.; FIG. 6

Row | Compound | Specific surface [1] | Specific surface, relative comparison [1] | particle size distribution [2] | 90% cumulative diameter [2] | temperature at which the acetone starts to be effectively decreased [3] | temperature at which the weight starts to be decreased [3]
1 | COCCCOc1ccnc(C[S+]([O-])c2nc3ccccc3[nH]2)c1C.[Na] (stereo not shown) [The freeze-dried product, 2-[[4-(3-methoxypropoxy)-3-methylpyridine-2-yl]methylsulfinyl]-1H-benzimidazole Sodium Salt] | 2.3 m^2/g | 1.00 | broad | 192.3 μm | – | –
2 | CC(C)=O.COCCCOc1ccnc(C[S+]([O-])c2nc3ccccc3[n-]2)c1C.[Na+] (stereo not shown) [Acetone Complex of 2-[[4-(3-methoxypropoxy)-3-methylpyridine-2-yl]methylsulfinyl]-1H-benzimidazole Sodium Salt] | – | – | – | – | ≥ 76.7 °C | ≥ 65.7 °C
3 | COCCCOc1ccnc(C[S+]([O-])c2nc3ccccc3[nH]2)c1C.[Na] (stereo not shown) [The heat-dried product, 2-[[4-(3-methoxypropoxy)-3-methylpyridine-2-yl]methylsulfinyl]-1H-benzimidazole Sodium Salt] | 1.6 m^2/g | 0.70 | sharp | 18.0 μm | – | –

Source: patent US7754887B2, “Process for production of sulfoxide derivatives or salts thereof in the amorphous state” (EISAI R&D Management Co., Ltd., priority 2003, dated 2010)
